Columns and labels:
[1] = Biodistribution in ICR mice after an iv injection; format: in vivo
From the text: Biodistribution in ICR Mice After an iv Injection of [^18F][4-(6-{2-[2-(2-Fluoro-ethoxy)-ethoxy]-ethoxy}-naphthalen-2-yl)-phenyl]-methyl-amine in 1% EtOH/0.1% BSA in Water
(% dose/organ, avg of 3 mice±SD)
(% dose/g, avg of 3 mice±SD)
Biodistribution in ICR Mice After an iv Injection of [^18F]19a in 3% EtOH/0.1% BSA in Water
Biodistribution in ICR Mice After an iv Injection of [^18F]34a in 5% EtOH/0.1% BSA in Water
Biodistribution in ICR Mice After an iv Injection of [^18F]32a in 1% EtOH/0.1% BSA in Water

[2] = Log P (octanol/Na2HPO4 buffer pH 7.4); format: physicochemical; settings: pH 7.4
[3] = Blood, 2 min after iv injection
[4] = Blood, 30 min after iv injection
[5] = Bone, 30 min after iv injection
[6] = Brain, 2 min after iv injection
[7] = Brain, 30 min after iv injection
[8] = Heart, 2 min after iv injection
[9] = Heart, 30 min after iv injection
[10] = Kidney, 2 min after iv injection
[11] = Kidney, 30 min after iv injection
[12] = Kidney, 1 hr after iv injection
[13] = Kidney, 2 hr after iv injection
[14] = Liver, 2 min after iv injection
[15] = Liver, 30 min after iv injection
[16] = Lung, 30 min after iv injection
[17] = Muscle, 2 min after iv injection
[18] = Muscle, 30 min after iv injection
[19] = Muscle, 1 hr after iv injection
[20] = Muscle, 2 hr after iv injection
[21] = Skin, 30 min after iv injection
[22] = Spleen, 2 min after iv injection
[23] = Spleen, 30 min after iv injection
[24] = Spleen, 1 hr after iv injection
[25] = Spleen, 2 hr after iv injection

CNc1ccc2cc(-c3ccc(OCCOCCOCC[18F])cc3)ccc2c1 [[^18F]19a]
% dose/g [1, 3]: 6.66 ± 0.86 % dose/g
% dose/organ [1, 3]: 11.1 ± 0.91 % dose/organ
% dose/g [1, 4]: 4.15 ± 0.59 % dose/g
% dose/organ [1, 4]: 6.94 ± 0.59 % dose/organ
% dose/g ([1]; Blood, 1 hr after iv injection): 3.14 ± 0.37 % dose/g
% dose/organ ([1]; Blood, 1 hr after iv injection): 4.94 ± 0.09 % dose/organ
% dose/g ([1]; Blood, 2 hr after iv injection): 3.05 ± 0.26 % dose/g
% dose/organ ([1]; Blood, 2 hr after iv injection): 5.19 ± 0.14 % dose/organ
% dose/g ([1]; Bone, 2 min after iv injection): 1.32 ± 0.18 % dose/g
% dose/organ ([1]; Bone, 2 min after iv injection): 4.42 ± 0.82 % dose/organ
% dose/g [1, 5]: 0.78 ± 0.10 % dose/g
% dose/organ [1, 5]: 2.59 ± 0.17 % dose/organ
% dose/g ([1]; Bone, 1 hr after iv injection): 0.82 ± 0.21 % dose/g
% dose/organ ([1]; Bone, 1 hr after iv injection): 2.60 ± 0.41 % dose/organ
% dose/g ([1]; Bone, 2 hr after iv injection): 1.37 ± 0.15 % dose/g
% dose/organ ([1]; Bone, 2 hr after iv injection): 4.67 ± 0.26 % dose/organ
% dose/g [1, 6]: 5.55 ± 0.77 % dose/g
% dose/organ [1, 6]: 2.51 ± 0.29 % dose/organ
% dose/g [1, 7]: 1.29 ± 0.19 % dose/g
% dose/organ [1, 7]: 0.59 ± 0.07 % dose/organ
% dose/g ([1]; Brain, 1 hr after iv injection): 1.05 ± 0.20 % dose/g
% dose/organ ([1]; Brain, 1 hr after iv injection): 0.48 ± 0.06 % dose/organ
% dose/g ([1]; Brain, 2 hr after iv injection): 0.92 ± 0.10 % dose/g
% dose/organ ([1]; Brain, 2 hr after iv injection): 0.42 ± 0.06 % dose/organ
% dose/g [1, 8]: 5.67 ± 0.42 % dose/g
% dose/organ [1, 8]: 0.63 ± 0.02 % dose/organ
% dose/g [1, 9]: 1.74 ± 0.19 % dose/g
% dose/organ [1, 9]: 0.21 ± 0.02 % dose/organ
% dose/g ([1]; Heart, 1 hr after iv injection): 1.69 ± 0.35 % dose/g
% dose/organ ([1]; Heart, 1 hr after iv injection): 0.18 ± 0.01 % dose/organ
% dose/g ([1]; Heart, 2 hr after iv injection): 1.40 ± 0.08 % dose/g
% dose/organ ([1]; Heart, 2 hr after iv injection): 0.16 ± 0.01 % dose/organ
% dose/g [1, 10]: 7.88 ± 0.94 % dose/g
% dose/organ [1, 10]: 3.06 ± 0.21 % dose/organ
% dose/g [1, 11]: 3.61 ± 0.98 % dose/g
% dose/organ [1, 11]: 1.38 ± 0.26 % dose/organ
% dose/g [1, 12]: 3.82 ± 1.54 % dose/g
% dose/organ [1, 12]: 1.37 ± 0.25 % dose/organ
% dose/g [1, 13]: 2.41 ± 0.42 % dose/g
% dose/organ [1, 13]: 0.88 ± 0.12 % dose/organ
% dose/g [1, 14]: 27.0 ± 0.91 % dose/g
% dose/organ [1, 14]: 32.0 ± 1.81 % dose/organ
% dose/g [1, 15]: 21.5 ± 2.08 % dose/g
% dose/organ [1, 15]: 25.7 ± 0.95 % dose/organ
% dose/g ([1]; Liver, 1 hr after iv injection): 14.1 ± 1.85 % dose/g
% dose/organ ([1]; Liver, 1 hr after iv injection): 15.7 ± 1.34 % dose/organ
% dose/g ([1]; Liver, 2 hr after iv injection): 8.85 ± 0.76 % dose/g
% dose/organ ([1]; Liver, 2 hr after iv injection): 10.6 ± 0.65 % dose/organ
% dose/g ([1]; Lung, 2 min after iv injection): 9.19 ± 1.18 % dose/g
% dose/organ ([1]; Lung, 2 min after iv injection): 1.76 ± 0.20 % dose/organ
% dose/g [1, 16]: 3.44 ± 0.49 % dose/g
% dose/organ [1, 16]: 0.67 ± 0.05 % dose/organ
% dose/g ([1]; Lung, 1 hr after iv injection): 2.68 ± 0.48 % dose/g
% dose/organ ([1]; Lung, 1 hr after iv injection): 0.41 ± 0.07 % dose/organ
% dose/g ([1]; Lung, 2 hr after iv injection): 2.48 ± 0.48 % dose/g
% dose/organ ([1]; Lung, 2 hr after iv injection): 0.45 ± 0.11 % dose/organ
% dose/g [1, 17]: 0.77 ± 0.14 % dose/g
% dose/organ [1, 17]: 7.42 ± 1.87 % dose/organ
% dose/g [1, 18]: 0.75 ± 0.09 % dose/g
% dose/organ [1, 18]: 7.22 ± 0.42 % dose/organ
% dose/g [1, 19]: 0.87 ± 0.03 % dose/g
% dose/organ [1, 19]: 7.86 ± 0.68 % dose/organ
% dose/g [1, 20]: 0.62 ± 0.11 % dose/g
% dose/organ [1, 20]: 6.02 ± 0.62 % dose/organ
% dose/g ([1]; Skin, 2 min after iv injection): 0.70 ± 0.04 % dose/g
% dose/organ ([1]; Skin, 2 min after iv injection): 2.51 ± 0.07 % dose/organ
% dose/g [1, 21]: 1.37 ± 0.11 % dose/g
% dose/organ [1, 21]: 4.93 ± 0.08 % dose/organ
% dose/g ([1]; Skin, 1 hr after iv injection): 1.32 ± 0.18 % dose/g
% dose/organ ([1]; Skin, 1 hr after iv injection): 4.46 ± 0.05 % dose/organ
% dose/g ([1]; Skin, 2 hr after iv injection): 0.77 ± 0.13 % dose/g
% dose/organ ([1]; Skin, 2 hr after iv injection): 2.81 ± 0.29 % dose/organ
% dose/g [1, 22]: 6.94 ± 0.99 % dose/g
% dose/organ [1, 22]: 0.79 ± 0.29 % dose/organ
% dose/g [1, 23]: 5.03 ± 1.18 % dose/g
% dose/organ [1, 23]: 0.53 ± 0.04 % dose/organ
% dose/g [1, 24]: 3.60 ± 0.15 % dose/g
% dose/organ [1, 24]: 0.30 ± 0.00 % dose/organ
% dose/g [1, 25]: 3.38 ± 0.52 % dose/g
% dose/organ [1, 25]: 0.31 ± 0.02 % dose/organ
Log P [2]: 2.60

Source: patent US20100215579A1, “PHEN-NAPHTHALENE AND PHEN-QUINOLINE DERIVATIVES AND THEIR USE FOR BINDING AND IMAGING AMYLOID PLAQUES” (The Trustees of the University of Pennsylvania, priority 2007, published 2010)
